{"source": "patent US9579328B2", "about": "“Prostaglandin and vasoconstrictor pharmaceutical compositions and methods of use” (ALLERGAN, INC., priority 2012, dated 2017)", "key": {"[1]": {"test_system": "eyes of conscious Beagle dogs", "conditions": "cited from earlier work; for conjunctival hyperemia or adverse ocular effects at baseline (time 0): 1% (w/v) topical, dog eyes; for effect of L-NAME on elicited ocular surface hyperemia: L-NAME 1% treated eyes, 0-6 h"}, "[2]": {"test_system": "rabbit isolated jugular veins", "experiment": "Vasorelaxation in histamine-precontracted rabbit isolated jugular veins", "assay_type": "cell-based", "description": "FIG. 3. Concentration-response curves for (FIG. 3A) bimatoprost and (FIG. 3B) latanoprost free acid in histamine-precontracted endothelium-intact and endothelium-denuded rabbit isolated jugular veins. Results are expressed as mean±S.E.M. of 5-6 animals. FIG. 3A adapted from Chen J et al., Invest Ophthalmol Vis Sci 2004; 45:ARVO E-Abstract 2609; FIG. 3B extends results reported in Chen J et al., Invest Ophthalmol Vis Sci 2004; 45:ARVO E-Abstract 2609; and Pharmacology Review of New Drug Application 21-275. FDA/Center for Drug Evaluation and Research. 2001;Part 1 and Part 2:1-107. Available online at http://www.fda.gov/cder/foi/nda/2001/21275_Lumigan.htm.\nFIG. 4. Concentration-response curves for (FIG. 4A) bimatoprost and (FIG. 4B) latanoprost free acid in the presence or absence of indomethacin in endothelium-intact rabbit isolated jugular veins. Results are expressed as mean±S.E.M. of 7 animals and extend previous results reported in Pharmacology Review of New Drug Application 21-275. FDA/Center for Drug Evaluation and Research. 2001;Part 1 and Part 2:1-107. Available online at http://www.fda.gov/cder/foi/nda/2001/21275_Lumigan.htm.\nFIG. 5. Concentration-response curves for (FIG. 5A) bimatoprost and (FIG. 5B) latanoprost free acid in the presence of 100 μM L-NAME or 100 (μM D-NAME control in endothelium-intact rabbit isolated jugular veins. Results are expressed as mean±S.E.M. of 6 animals. *P≦0.05, compared to responses in D-NAME pretreated tissues at the same concentration, paired t-test.\nThe pharmacological mechanism of ocular surface hyperemia elicited by bimatoprost and latanoprost was investigated using the rabbit jugular vein preparation as a quantitative in vitro model (Chen J. et al., Br J Pharmacol 1995; 116:3035-3041). In these studies, tissues were suspended in jacketed organ baths containing Krebs buffer with 1 μM indomethacin (endothelium-intact and -denuded) or in its absence (endothelium-intact) and precontracted with 3 μM histamine. Vasorelaxant and contractile activity were determined as a percentage (%) of the control tone elicited by histamine. Statistical comparisons for the vasorelaxant activity consisted of testing for significance of difference at each of the concentrations tested using the Student'-s t-test for unpaired samples (indomethacin vs no indomethacin) and paired samples (L-NAME vs D-NAME). Differences were considered statistically significant for P-values ≦0.05.\nIndomethacin is a cyclooxygenase inhibitor that is routinely used in prostanoid receptor assays (Chen J et al., Current protocols in pharmacology. New York: John Wiley & Sons, Inc., 2001; 4.18.1-4.18.41). Studies of intact and viable isolated tissues, such as the rabbit jejunum (Ferreira S H, Herman A G, Vane J R., Br J Pharmacol 1976; 56:469-477) and human bronchial muscle (Haye-Legrand I, Cerrina J, Raffestin B et al., J Pharmacol Exp Ther 1986; 239:536-541), found the basal output of prostaglandins to be 8-23 pg/mg of tissue at baseline or over 30 min collection periods. In the presence of 1.7 and 2.79 μM indomethacin, the amounts of prostaglandins generated in isolated tissues become negligible (Botting J H, Salzmann R., Br J Pharmacol 1974; 50:119-124; Haye-Legrand I, Cerrina J, Raffestin B et al., J Pharmacol Exp Ther 1986; 239:536-541). The 1 μM concentration of indomethacin in the tissue bath, in our experience, is sufficient to prevent biosynthesis of prostanoids within isolated vascular tissue preparations (Alster P, Wennmalm Å., Eur J Pharmacol 1983; 86:441-446; Chen J et al., Current protocols in pharmacology. New York: John Wiley & Sons, Inc., 2001; 4.18.1-4.18.41). At substantially higher concentrations, indomethacin has been reported to lose selectivity for prostanoid biosynthesis inhibition (Aboulafia J et al., Br J Pharmacol 1976; 58:223-228; Goodfriend T L, Simpson R U., Br J Pharmacol 1981; 72:247-255; Northover B J, Br J Pharmacol 1971; 41:540-551; Sawdy R et al., Br J Pharmacol 1998; 125:1212-1217). […]"}, "[3]": {"test_system": "rabbit isolated jugular veins", "conditions": "rabbit jugular vein; cited from earlier work"}, "[4]": {"test_system": "human cultured conjunctiva-derived epithelial cells", "conditions": "cited from earlier work; for direct stimulation of inflammatory pathways involving adhesion molecules or class II antigens: in vitro; for toxicity observed: primarily related to the concentration of benzalkonium chloride"}, "rabbit eye conjunctiva": {"test_system": "rabbit eye conjunctiva", "conditions": "topical dose of 10 μg (0.03%, 30 μl); cited from earlier work"}, "[5]": {"test_system": "patients with glaucoma or ocular hypertension", "conditions": "1 year; bimatoprost 0.03% once or twice daily, timolol maleate 0.5% twice daily; subset of 310 patients; cited from earlier work"}, "[6]": {"conditions": "bimatoprost 0.1%, latanoprost 0.005%, PGE2 0.01%"}}, "note": "Counter-ions that a name gives are not always drawn."}
{"smiles": "COC(=O)[C@H](N)CCCN=C(N)N[N+](=O)[O-]", "note": "[D-NAME]", "values": [{"measurement": "conjunctival hyperemia or adverse ocular effects at baseline (time 0)", "setting": "[1]", "value": "did not produce conjunctival hyperemia or any adverse ocular effects"}]}
{"smiles": "COC(=O)[C@@H](N)CCCNC(=N)N[N+](=O)[O-]", "note": "[L-NAME, L-N^G-nitroarginine methyl ester]", "values": [{"measurement": "conjunctival hyperemia or adverse ocular effects at baseline (time 0)", "setting": "[1]", "value": "did not produce conjunctival hyperemia or any adverse ocular effects"}]}
{"smiles": "O=C(O)CCC/C=C\\C[C@@H]1[C@@H](CC[C@@H](O)CCc2ccccc2)[C@H](O)C[C@@H]1O", "note": "[Latanoprost free acid, latanoprost free acid]", "values": [{"measurement": "contraction of the endothelium-denuded preparation", "setting": "[2]; concentration range of 10^−10 to 10^−6 M", "value": "did not contract"}, {"measurement": "response in endothelium-denuded veins", "setting": "[2]; endothelium-denuded, 10^−5M, latanoprost free acid", "value": "only contractions"}, {"measurement": "vasorelaxant response in presence of 100 μM L-NAME compared to 100 μM D-NAME control", "setting": "[2]; endothelium-intact histamine precontracted tissues, P≦0.05 paired t-test", "value": "significantly inhibited"}, {"measurement": "concentration of maximal vasorelaxation", "setting": "[2]; endothelium-intact preparation", "value": "10^−7 M"}, {"measurement": "response at higher concentrations of 10^−6M and 10^−5M", "setting": "[2]; endothelium-intact preparation", "value": "reversal of the relaxant effects"}, {"measurement": "difference in effects with and without 1 μM indomethacin", "setting": "[2]; endothelium-intact tissues, each concentration tested", "value": "no statistically significant differences"}]}
{"smiles": "CCCCC[C@H](O)/C=C/[C@H]1[C@H](O)CC(=O)[C@@H]1C/C=C\\CCCC(=O)O", "note": "[PGE2, prostaglandin E2]", "values": [{"measurement": "effect of L-NAME on elicited ocular surface hyperemia", "setting": "[1]; [6]", "value": "had no effect"}, {"measurement": "ocular surface hyperemia severity", "setting": "[1]; PGE2 0.01%, both D-NAME- and L-NAME-treated eyes, scale 0=none to 3=severe", "value": "mild to moderate"}]}
{"smiles": "CCCCC[C@H](O)/C=C/[C@@H]1[C@@H](C/C=C\\CCCC(=O)O)[C@@H](O)C[C@H]1O", "note": "[PGF2a, prostaglandin F2a]", "values": [{"measurement": "inhibition of response by L-NAME at 100 μM, compared to bimatoprost and latanoprost free acid", "setting": "[3]", "value": "less effective"}]}
{"smiles": "O=C(O)CCC/C=C\\C[C@@H]1[C@H](CNNC(=O)Nc2ccccc2)[C@H]2CC[C@@H]1O2", "note": "[SQ 29548]", "values": [{"measurement": "effect of TP antagonist on reversal of the vasorelaxant response to latanoprost free acid", "setting": "[2]; latanoprost free acid up to 10^−6 M", "value": "did not block the reversal of the vasorelaxant response"}]}
{"smiles": "CC(C)OC(=O)CCC/C=C\\C[C@@H]1[C@@H](CC[C@@H](O)CCc2ccccc2)[C@H](O)C[C@@H]1O", "note": "[latanoprost]", "values": [{"measurement": "direct stimulation of inflammatory pathways involving adhesion molecules or class II antigens", "setting": "[4]", "value": "None of the drugs appeared to induce direct stimulation of inflammatory pathways"}, {"measurement": "toxicity observed", "setting": "[4]", "value": "mild"}, {"measurement": "ocular surface hyperemic response (severity)", "setting": "[1]; D-NAME treated control eyes, bimatoprost 0.1%, latanoprost 0.005%, scale 0=none, 0.5=trace, 1=mild, 2=moderate, 3=severe", "value": "trace to mild"}, {"measurement": "effect of L-NAME on elicited ocular surface hyperemia", "setting": "[1]; [6]", "value": "blocked"}, {"measurement": "acute effects on blood flow in the conjunctiva", "setting": "rabbit eye conjunctiva", "value": "no significant acute effects"}]}
{"smiles": "CC(C)(C)NC[C@H](O)COc1nsnc1N1CCOCC1", "note": "[timolol maleate, (−)-1-tert-butylamino-3-[(4-morpholino-1,2,5-thiodiazol-3yl)oxy]-2-propanol maleate]", "values": [{"measurement": "mean laser-flare photometry readings and mean changes from baseline", "setting": "[5]", "value": "no significant differences among the treatment groups"}]}
{"smiles": "CC(C)OC(=O)CCC/C=C\\C[C@@H]1[C@@H](/C=C/[C@@H](O)COc2cccc(C(F)(F)F)c2)[C@H](O)C[C@@H]1O", "note": "[travoprost]", "values": [{"measurement": "direct stimulation of inflammatory pathways involving adhesion molecules or class II antigens", "setting": "[4]", "value": "None of the drugs appeared to induce direct stimulation of inflammatory pathways"}, {"measurement": "toxicity observed", "setting": "[4]", "value": "mild"}]}
